According to patent US20250100960A1, “NAPHTHALENE AND QUINOLINE ANALOGS AS RXFP1 AGONISTS” (BRISTOL-MYERS SQUIBB COMPANY, priority 2021, published 2025):

Tested on: not given
Assay: not given
Conditions: intravenous (IV) formulation; cited from earlier work

Row | Compound | first-phase pharmacokinetic half-life [min]
1 | Serelaxin | 5.4

Biological target: T1, human RXFP1 (Homo sapiens, UniProt Q9HBX9)
T1 construct: expressed in transfected cells; host or cells: HEK293
T1 sequence (Q9HBX9 1-757): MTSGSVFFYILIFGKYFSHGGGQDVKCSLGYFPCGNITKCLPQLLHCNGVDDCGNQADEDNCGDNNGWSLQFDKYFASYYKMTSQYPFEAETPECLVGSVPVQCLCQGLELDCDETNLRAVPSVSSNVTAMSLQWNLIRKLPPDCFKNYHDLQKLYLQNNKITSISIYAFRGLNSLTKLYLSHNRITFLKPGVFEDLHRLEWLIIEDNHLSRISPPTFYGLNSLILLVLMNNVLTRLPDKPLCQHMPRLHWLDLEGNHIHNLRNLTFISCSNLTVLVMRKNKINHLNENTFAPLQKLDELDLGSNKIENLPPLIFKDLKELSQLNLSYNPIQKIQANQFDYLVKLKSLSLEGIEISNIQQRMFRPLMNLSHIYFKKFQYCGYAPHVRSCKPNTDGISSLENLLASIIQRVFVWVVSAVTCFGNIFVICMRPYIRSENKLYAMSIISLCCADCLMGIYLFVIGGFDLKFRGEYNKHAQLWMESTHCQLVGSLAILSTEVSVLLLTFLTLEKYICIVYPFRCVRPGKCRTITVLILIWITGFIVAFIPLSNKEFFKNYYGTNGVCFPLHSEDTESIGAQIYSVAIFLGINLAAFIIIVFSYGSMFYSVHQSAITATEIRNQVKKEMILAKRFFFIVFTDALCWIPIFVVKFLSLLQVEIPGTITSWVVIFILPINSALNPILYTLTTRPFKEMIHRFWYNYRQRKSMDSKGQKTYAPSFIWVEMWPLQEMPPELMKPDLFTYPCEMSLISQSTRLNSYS
Assay: hRXFP1 HEK293 cAMP assay
Format: cell-based
Conditions: HEK293 cells stably expressing human RXFP1; intracellular cAMP by HTRF; 30 min at room temperature
Method: RXFP1 Cyclic Adenosine Monophosphate (cAMP) Assays. Human embryonic kidney cells 293 (HEK293) cells and HEK293 cells stably expressing human RXFP1, were cultured in MEM medium supplemented with 10% qualified FBS, and 300 μg/ml hygromycin (Life Technologies). Cells were dissociated and suspended in assay buffer. The assay buffer was HBSS buffer (with calcium and magnesium) containing 20 mM HEPES, 0.05% BSA, and 0.5 mM IBMX. Cells (3000 cells per well, except 1500 cell per well for HEK293 cells stably expressing human RXFP1) were added to 384-well Proxiplates (Perkin-Elmer). Cells were immediately treated with test compounds in DMSO (2% final) at final concentrations in the range of 0.010 nM to 50 μM. Cells were incubated for 30 min at room temperature. The level of intracellular cAMP was determined using the HTRF HiRange cAMP assay reagent kit (Cisbio) according to manufacturer's instructions. Solutions of cryptate conjugated anti-cAMP and d2 fluorophore-labelled cAMP were made in a supplied lysis buffer separately. Upon completion of the reaction, the cells were lysed with equal volume of the d2-cAMP solution and anti-cAMP solution. After a 1 h room temperature incubation, time-resolved fluorescence intensity was measured using the Envision (Perkin-Elmer) at 400 nm excitation and dual emission at 590 nm and 665 nm. A calibration curve was constructed with an external cAMP standard at concentrations ranging from 2.7 μM to 0.1 μM by plotting the fluorescent intensity ratio from 665 nm emission to the intensity from the 590 nm emission against cAMP concentrations. The potency and activity of a compound to […] cAMP production was then determined by fitting to a 4-parametric logistic equation from a plot of cAMP level versus compound concentrations.
The examples disclosed below were tested in the human RXFP1 (hRXFP1) HEK293 cAMP assay described above and found to have agonist activity. Tables 1-3, lists EC50 values in the hRXFP1 HEK293 cAMP assay measured for the examples.

Row | EC50 [nM] | Compound
2 | 490 | COc1ccc(-c2cc(C(O)C(=O)O)ccc2F)cc1C(=O)Nc1cc2ccccc2cc1C(=O)Nc1ccc(F)c(C(F)(F)F)c1 (single isomer, unassigned) [Example 4, 2-(6-fluoro-3′-((3-((4-fluoro-3-(trifluoromethyl)phenyl)carbamoyl)naphthalen-2-yl)carbamoyl)-4′-methoxy-[1,1′-biphenyl]-3-yl)-2-hydroxyacetic acid]
3 | 320 | COc1ccc(C2=NOC3CC(CO)CC23)cc1C(=O)Nc1cc2ccccc2cc1C(=O)Nc1ccc(F)c(C(F)(F)F)c1 (single isomer, unassigned) [Example 13, N-(4-fluoro-3-(trifluoromethyl)phenyl)-3-(5-(5-(hydroxymethyl)-3a,5,6,6a-tetrahydro-4H-cyclopenta[d]isoxazol-3-yl)-2-methoxybenzamido)-2-naphthamide]
4 | 60 | COc1ccc(C2=NOC3CC(CO)CC23)cc1C(=O)Nc1cc2ccccc2cc1C(=O)Nc1ccc(F)c(C(F)(F)F)c1 (single isomer, unassigned) [Example 14, N-(4-fluoro-3-(trifluoromethyl)phenyl)-3-(5-(5-(hydroxymethyl)-3a,5,6,6a-tetrahydro-4H-cyclopenta[d]isoxazol-3-yl)-2-methoxybenzamido)-2-naphthamide]
5 | 190 | COc1ccc(C2=NOC3CC(O)CC23)cc1C(=O)Nc1cc2ccccc2cc1C(=O)Nc1ccc(F)c(C(F)(F)F)c1 (single isomer, unassigned) [Example 15, N-(4-fluoro-3-(trifluoromethyl)phenyl)-3-(5-(5-hydroxy-3a,5,6,6a-tetrahydro-4H-cyclopenta[d]isoxazol-3-yl)-2-methoxybenzamido)-2-naphthamide]
6 | 1100 | COc1ccc(-c2cc(C(=O)O)ccc2F)cc1C(=O)Nc1cc2ccccc2cc1C(=O)Nc1ccc(F)c(C(F)(F)F)c1 [Example 1, 6-fluoro-3′-((3-((4-fluoro-3-(trifluoromethyl)phenyl)carbamoyl)naphthalen-2-yl)carbamoyl)-4′-methoxy-[1,1′-biphenyl]-3-carboxylic acid]
7 | 4.2 | COc1ccc(-c2cc(C(NC(=O)C3CCOCC3)C(=O)O)ccc2F)cc1C(=O)Nc1cc2ccccc2cc1C(=O)Nc1ccc(F)c(C(F)(F)F)c1 (stereo not drawn) [Example 2, 2-(6-fluoro-3′-((3-((4-fluoro-3-(trifluoromethyl)phenyl)carbamoyl)naphthalen-2-yl)carbamoyl)-4′-methoxy-[1,1′-biphenyl]-3-yl)-2-(tetrahydro-2H-pyran-4-carboxamido)acetic acid]
8 | 190 | COc1ccc(-c2cc(C(NC(=O)C3CCOCC3)C(=O)O)ccc2F)cc1C(=O)Nc1cc2cc(Br)c(Br)cc2cc1C(=O)Nc1ccc(F)c(C(F)(F)F)c1 (stereo not drawn) [Example 3, 2-(3′-((6,7-dibromo-3-((4-fluoro-3-(trifluoromethyl)phenyl)-carbamoyl)naphthalen-2-yl)carbamoyl)-6-fluoro-4′-methoxy-[1,1′-biphenyl]-3-yl)-2-(tetrahydro-2H-pyran-4-carboxamido)acetic acid]
9 | 11 | COc1ccc(-c2cc([C@H](OC(=O)NC3CCC3)C(F)(F)F)ccc2F)cc1C(=O)Nc1cc2ccccc2cc1C(=O)Nc1ccc(F)c(C(F)(F)F)c1 [Example 5, (S)-2,2,2-trifluoro-1-(6-fluoro-3′-((3-((4-fluoro-3-(trifluoromethyl)phenyl)carbamoyl)-naphthalen-2-yl)carbamoyl)-4′-methoxy-[1,1′-biphenyl]-3-yl)ethyl cyclobutylcarbamate]
10 | 1300 | COc1ccc(-c2cc(C(=O)O)ccc2F)cc1C(=O)Nc1cc2c(Br)cccc2cc1C(=O)Nc1ccc(F)c(C(F)(F)F)c1 [Example 6, 3′-((8-bromo-3-((4-fluoro-3-(trifluoromethyl)phenyl)carbamoyl)naphthalen-2-yl)carbamoyl)-6-fluoro-4′-methoxy-[1,1′-biphenyl]-3-carboxylic acid]
11 | 2600 | COc1ccc(-c2cc(C(=O)O)ccc2F)cc1C(=O)Nc1cc2ccc(Br)cc2cc1C(=O)Nc1ccc(F)c(C(F)(F)F)c1 [Example 8, 3′-((6-bromo-3-((4-fluoro-3-(trifluoromethyl)phenyl)carbamoyl)naphthalen-2-yl)carbamoyl)-6-fluoro-4′-methoxy-[1,1′-biphenyl]-3-carboxylic acid]
12 | 4800 | COc1ccc(S(=O)(=O)CCCO)cc1C(=O)Nc1cc2ccccc2cc1C(=O)Nc1ccc(F)c(C(F)(F)F)c1 [Example 9, N-(4-fluoro-3-(trifluoromethyl)phenyl)-3-(5-((3-hydroxypropyl)sulfonyl)-2-methoxybenzamido)-2-naphthamide]
13 | 5000 | COc1ccc(C#C[C@H](C)O)cc1C(=O)Nc1cc2ccccc2cc1C(=O)Nc1ccc(F)c(C(F)(F)F)c1 [Example 10, (S)—N-(4-fluoro-3-(trifluoromethyl)phenyl)-3-(5-(3-hydroxybut-1-yn-1-yl)-2-methoxybenzamido)-2-naphthamide]
14 | 2000 | COc1ccc(N2CCCS2(=O)=O)cc1C(=O)Nc1cc2ccccc2cc1C(=O)Nc1ccc(F)c(C(F)(F)F)c1 [Example 11, 3-(5-(1,1-dioxidoisothiazolidin-2-yl)-2-methoxybenzamido)-N-(4-fluoro-3-(trifluoromethyl)-phenyl)-2-naphthamide]
15 | 1400 | COc1ccc(-n2ncccc2=O)cc1C(=O)Nc1cc2ccccc2cc1C(=O)Nc1ccc(F)c(C(F)(F)F)c1 [Example 12, N-(4-fluoro-3-(trifluoromethyl)phenyl)-3-(2-methoxy-5-(6-oxopyridazin-1(6H)-yl)benzamido)-2-naphthamide]
